Reference: US4440772A, “Acid addition salts of dextrorotatory ergot alkaloids, a process for the preparation thereof as well as their use as medicines” (priority 1978, dated 1984)

Experiments:
[1] = established for known ergot alkaloids; cited from earlier work
[2] = literature comparison; cited from earlier work
[3] = system: smooth muscles of blood vessels; assay: effect on blood pressure drop in rats with cut spinal cord; type: in vivo, rats (variety Wistar); conditions: for long-duration hypertension (effect in words): 4.5 mg/kg of body weight; for vasoconstrictory effect: contraction of smooth muscles of blood vessels
Description: Rats (variety Wistar) in urethane narcosis were cut their spinal cord in the region of the second cervical vertebra and connected to an artificial breathing apparatus (B. Melsungen). By this intervention the central regulation of blood pressure was eliminated. In so treated animals blood pressure dropped for about 50 mm Hg. The experiment was supposed to show whether the examined substances directly affected the smooth muscles of blood vessels.

heart in situ = assay: effect on heart in situ in rats; type: in vivo; conditions: slow infusion
Method: The effect of ergotaminine, ergosinine and ergocrystinine on heart in situ was examined in rats. The thorax of narcotized rats (0.7 ml of 25% urethane solution per 100 g of the body weight, administered subcutaneously) was opened. The heart was placed into a special basket with a balloon, which was connected over a polyethylene cannula to a transducer "Mini Pressure Transducer--Beckmann" and dynograph Beckmann. As the left wall of the ventricle leant against the balloon, the contraction of the ventricle could be recorded. Over a tracheal tube the rats were connected to an artificial breathing apparatus.

[4] = system: spontaneously hypertensive rats; assay: effect on arterial pressure of spontaneously hypertensive rats; type: in vivo, rats (variety Okamoto Aoki F32)
Method: For the experiment groups of 10 spontaneously hypertensive rats (variety Okamoto Aoki F32) of both sexes, weighing from 200 to 250 g, were used. The acid addition salts of said dextrorotatory ergot alkaloids were administered intraperitoneally in doses of 50 mcg/kg of body weight and systolic blood pressure was measured on the rats' tails by means of plethysmographic method (K. Okamoto and K. Aoki, Jap. Circulat. J. 27, 1963, 282).

[5] = system: isolated heart of a guinea pig; assay: effect on isolated heart of a guinea pig, modified Langendorff's method
Description: The effect of dextrorotatory ergot alkaloids according to the invention on heart in vitro was examined on isolated heart of a guinea pig by the modified Langendorff's method (Zalar et al., Poll. Chim. Farmac. 114, 1975, 146). Alkaloids were infused by an apparatus for slow infusion (B. Melsungen).

[6] = system: arrhythmias induced by adrenalin; assay: effect on arrhythmia induced by adrenalin; type: in vivo; conditions: guinea pigs
Method: For experiments, guinea pigs of both sexes, weighing from 400 to 550 g, were used. The narcotized animals (urethane 1.6 g/kg of body weight, intraperitoneally) were at first intravenously administered adrenalin (0.02 mg/kg) and then dextrorotatory ergot alkaloids. 1 hour and 1.5 hours after the administration of dextrorotatory ergot alkaloids, adrenalin was again administered intravenously (0.02 mg/kg) and the presence as well as duration of arrhythmias was ascertained.

[7] = system: alpha-adrenergic receivers of the dilatating pupil muscle; assay: effect on the function of the pupil (mydriatic effect, Polewka's method); type: in vivo; conditions: 5 mg/kg intravenously, mouse
Method: The phenomenon of mydriasis induced by ergot alkaloids results from the stimulation of alpha-adrenergic receivers of the dilatating pupil muscle (Z. Votava et al., Arch. int. Pharmacodin. 45, 1958, 114).
The mydriatic effect of dextrorotatory ergot alkaloids administered intravenously was determined with a monocular measuring magnifying glass by Polewka's method (A. R. Turner, Screening Methods in Pharmacology, 1965, p. 174 ff.).
The size of the pupil was measured at first before the administration of the substance and then 15, 30 and 60 minutes after intravenous administration of alkaloids into the mouse tail (dose 5 mg/kg of body weight).

[8] = acute toxicity (LD50), intraperitoneal administration; conditions: mouse, in vivo, ip, male mice, 24 hours after administration
Method: The volume of injected solution was 0.01 ml/g of body weight. In the following Table I acute toxicity of dextrorotatory ergot alkaloids in comparison with levorotatory ergot alkaloids 24 hours after the intraperitoneal administration is given.

[9] = spontaneously hypertensive rats, 50 mcg/kg intraperitoneally

CN1C[C@H](C(=O)N[C@]2(C)O[C@@]3(O)[C@@H]4CCCN4C(=O)[C@H](Cc4ccccc4)N3C2=O)C[C@@H]2c3cccc4[nH]cc(c34)C[C@H]21 [dihydroergotamine]
heart action (bradycardia) [1]: bradycardia | vasoconstrictory effect [2]: vasoconstrictory effect

CC(C)[C@@]1(NC(=O)[C@H]2C=C3c4cccc5[nH]cc(c45)C[C@H]3N(C)C2)O[C@@]2(O)[C@@H]3CCCN3C(=O)[C@H](Cc3ccccc3)N2C1=O [ergocristinine]
long-duration hypertension (effect in words) [3]: no effect | increase of the strength of heart contraction (heart in situ; 250 mcg/kg intravenously): 15% | increase of the strength of heart contraction (heart in situ; 300 mcg/kg intravenously): 30%

CC(C)C[C@H]1C(=O)N2CCC[C@H]2[C@]2(O)O[C@@](C)(NC(=O)[C@H]3C=C4c5cccc6[nH]cc(c56)C[C@H]4N(C)C3)C(=O)N12 [ergosinine]
long-duration hypertension (effect in words) [3]: The same effect | vasoconstrictory effect [3]: vasoconstrictory effect | effect on systolic blood pressure (in words) [4, 9]: strongest effect | effect on isolated heart (in words) ([5]; isolated heart of guinea pig): qualitatively similar to that of ergotamine, ergosine and dihydroergotamine | effect on the strength of heart contraction (in words) ([5]; isolated heart of guinea pig): quantitatively greater effect on the strength of heart contraction | increase of the strength of heart contraction (heart in situ; 250 mcg/kg intravenously): 15% | increase of the strength of heart contraction (heart in situ; 300 mcg/kg intravenously): 30% | effect on duration of arrhythmia (in words) ([6]; arrhythmias induced by adrenalin): most efficiently shortened | mydriatic effect (in words) [7]: strongest mydriatic effect

CN1C[C@H](C(=O)N[C@]2(C)O[C@@]3(O)[C@@H]4CCCN4C(=O)[C@H](Cc4ccccc4)N3C2=O)C=C2c3cccc4[nH]cc(c34)C[C@H]21 [ergotamine]
heart action (bradycardia) [1]: bradycardia

CN1C[C@@H](C(=O)N[C@]2(C)O[C@@]3(O)[C@@H]4CCCN4C(=O)[C@H](Cc4ccccc4)N3C2=O)C=C2c3cccc4[nH]cc(c34)C[C@H]21 [ergotaminine methanesulfonate, Ergotaminine methanesulfonate]
LD50 at 24 h [8]: > 300 mg/kg | Systolic blood pressure ([4]; control, spontaneously hypertensive rats): 189 mm Hg | Systolic blood pressure ([4]; day 2, 50 mcg/kg intraperitoneally): 162 mm Hg | Systolic blood pressure ([4]; day 4, 50 mcg/kg intraperitoneally): 143 mm Hg | Systolic blood pressure ([4]; day 6, 50 mcg/kg intraperitoneally): 131 mm Hg | Systolic blood pressure ([4]; day 8, 50 mcg/kg intraperitoneally): 144 mm Hg | Systolic blood pressure ([4]; day 10, 50 mcg/kg intraperitoneally): 150 mm Hg | activation at 5.59 µg/g ([5]; Cavia porcellus, dose 5.59 mcg/g of heart, read-out: (+)inotropic (maximum)): 32% | inhibition at 5.59 µg/g ([5]; Cavia porcellus, dose 5.59 mcg/g of heart, read-out: (-)chronotropic (maximum)): 20% | Shortening of arrhythmia duration ([6]; 2.0 mg/kg intraperitoneally, adrenalin 0.02 mg/kg intravenously): 28 % of control | The increase of pupil widening in comparison with the control ([7]; after 15 min.): 66.3% | The increase of pupil widening in comparison with the control ([7]; after 30 min.): 69.8% | The increase of pupil widening in comparison with the control ([7]; after 60 min.): 30.3%

CN1C[C@@H](C(=O)N[C@]2(C)O[C@@]3(O)[C@@H]4CCCN4C(=O)[C@H](Cc4ccccc4)N3C2=O)C=C2c3cccc4[nH]cc(c34)C[C@H]21 [ergotaminine]
duration of long-duration hypertension ([3]; acid addition salts, 1.5 mg/kg of body weight): more than 60 minutes | vasoconstrictory effect [3]: vasoconstrictory effect | effect on systolic blood pressure (in words) [4, 9]: strongest effect | effect on isolated heart (in words) ([5]; isolated heart of guinea pig): qualitatively similar to that of ergotamine, ergosine and dihydroergotamine | increase of the strength of heart contraction (heart in situ; 250 mcg/kg intravenously): 15% | increase of the strength of heart contraction (heart in situ; 300 mcg/kg intravenously): 30%
